Test results as given in publication PMC10689823, “Discovery of a Drug-like, Natural Product-Inspired DCAF11 Ligand Chemotype” (Nature Communications, 2023).

Target: BRD4S-TagBFP reporter (Homo sapiens, UniProt O60885)
Experiment: FACS-based CRISPR/Cas9 BRD4 protein stability screen
Procedure: The virus containing supernatant was cleared of cellular debris by filtration through a 0.45-µm PES filter and used to transduce KBM7 BRD4-BFP reporter cells harboring a doxycycline inducible Cas9 allele at a multiplicity of infection (MOI) of 0.05 and 1,000-fold library representation. Library-transduced cells were selected with G418 (1 mg ml^−1, Gibco) for 14 days, expanded and Cas9 expression was induced with DOX (0.4 µg ml^−1, PanReac AppliChem).
Cells were washed with and stored in FACS buffer (PBS containing 5% FBS and 1 mM EDTA) at 4 °C overnight. The next day, cells were strained trough a 35 µm nylon mesh and sorted on a BD FACSAria™ Fusion (BD Biosciences) using a 85 µm nozzle. Aggregates, dead (ZombieNIR positive), Cas9-negative (GFP) and sgRNA library-negative (Thy1.1-APC) cells were excluded, and the remaining cells were sorted based on their BRD4-BFP and mCherry levels into BRD4^HIGH (10% of cells), BRD4^MID (30%) and BRD4^LOW (10%) fractions. For each sample, cells corresponding to at least 2,000-fold library representation were sorted per replicate.
Next-generation sequencing (NGS) libraries of sorted cell fractions were prepared as previously described[25]. In brief, genomic DNA was isolated by cell lysis (10 mM Tris-HCl, 150 mM NaCl, 10 mM EDTA, 0.1% SDS), proteinase K treatment (New England Biolabs) and DNAse-free RNAse digest (Thermo Fisher Scientific), followed by two rounds of phenol extraction and 2-propanol precipitation. Isolated genomic DNA was subjected to several freeze–thaw cycles before nested polymerase chain reaction (PCR) amplification of the sgRNA cassette.
Barcoded NGS libraries for each sorted population were generated using a two-step PCR protocol using AmpliTaq Gold (Invitrogen). The resulting PCR products were purified using Mag-Bind® TotalPure NGS beads (Omega Bio-tek) and amplified in a second PCR introducing the standard Illumina adapters. The final Illumina libraries were bead-purified, pooled and sequenced on a HiSeq 3500 platform (Illumina).
Screen analysis was performed as previously described[25]. Briefly, sequencing reads were quantified using the crispr-process-nf Nextflow workflow, available at https://github.com/ZuberLab/crispr-process-nf/tree/566f6d46bbcc2a3f49f51bbc96b9820f408ec4a3. For statistical analysis, we used the crispr-mageck-nf Nextflow workflow, available at https://github.com/ZuberLab/crispr-mageck-nf/tree/c75a90f670698bfa78bfd8be786d6e5d6d4fc455. To calculate gene-level enrichment, the sorted populations (BRD4^HIGH or BRD4^LOW) were compared to the BRD4^MID populations in MAGeCK (0.5.9)[46], using median normalized read counts.

Low_lfc (Gene FBXL18, Mageck_Gene level): 0.05 | Low_logP (Gene FBXL18, Mageck_Gene level): 0.07 | High_lfc (Gene FBXL19, Mageck_Gene level): -0.41 | High_logP (Gene FBXL19, Mageck_Gene level): 0 | Low_lfc (Gene FBXL19, Mageck_Gene level): 0.11 | Low_logP (Gene FBXL19, Mageck_Gene level): 0.48 | High_lfc (Gene FBXL20, Mageck_Gene level): -0.06 | High_logP (Gene FBXL20, Mageck_Gene level): 0.09 | Low_lfc (Gene FBXL20, Mageck_Gene level): -0.11 | Low_logP (Gene FBXL20, Mageck_Gene level): 0.04 | High_lfc (Gene FBXL21, Mageck_Gene level): -0.29 | High_logP (Gene FBXL21, Mageck_Gene level): 0.09 | Low_lfc (Gene FBXL21, Mageck_Gene level): -0.29 | Low_logP (Gene FBXL21, Mageck_Gene level): 0.01 | High_lfc (Gene FBXL22, Mageck_Gene level): 0.14 | High_logP (Gene FBXL22, Mageck_Gene level): 0.24 | Low_lfc (Gene FBXL22, Mageck_Gene level): 0.36 | Low_logP (Gene FBXL22, Mageck_Gene level): 0.63 | High_lfc (Gene FBXO2, Mageck_Gene level): -0.09 | High_logP (Gene FBXO2, Mageck_Gene level): 0.03 | Low_lfc (Gene FBXO2, Mageck_Gene level): 0.42 | Low_logP (Gene FBXO2, Mageck_Gene level): 1.6 | High_lfc (Gene FBXO10, Mageck_Gene level): 0.22 | High_logP (Gene FBXO10, Mageck_Gene level): 0.52 | Low_lfc (Gene FBXO10, Mageck_Gene level): -0.18 | Low_logP (Gene FBXO10, Mageck_Gene level): 0.08 | High_lfc (Gene FBXO11, Mageck_Gene level): -0.38 | High_logP (Gene FBXO11, Mageck_Gene level): 0.01 | Low_lfc (Gene FBXO11, Mageck_Gene level): -0.03 | Low_logP (Gene FBXO11, Mageck_Gene level): 0.19 | High_lfc (Gene FBXO15, Mageck_Gene level): -0.34 | High_logP (Gene FBXO15, Mageck_Gene level): 0.01 | Low_lfc (Gene FBXO15, Mageck_Gene level): -0.22 | Low_logP (Gene FBXO15, Mageck_Gene level): 0.07 | High_lfc (Gene FBXO16, Mageck_Gene level): -0.28 | High_logP (Gene FBXO16, Mageck_Gene level): 0.17 | Low_lfc (Gene FBXO16, Mageck_Gene level): -0.34 | Low_logP (Gene FBXO16, Mageck_Gene level): 0.13 | High_lfc (Gene FBXO17, Mageck_Gene level): 0.05 | High_logP (Gene FBXO17, Mageck_Gene level): 0.04 | Low_lfc (Gene FBXO17, Mageck_Gene level): -0.01 | Low_logP (Gene FBXO17, Mageck_Gene level): 0.24 | High_lfc (Gene FBXO18, Mageck_Gene level): 0.01 | High_logP (Gene FBXO18, Mageck_Gene level): 0.35 | Low_lfc (Gene FBXO18, Mageck_Gene level): -0.24 | Low_logP (Gene FBXO18, Mageck_Gene level): 0.06 | High_lfc (Gene FBXO21, Mageck_Gene level): -0.09 | High_logP (Gene FBXO21, Mageck_Gene level): 0.15 | Low_lfc (Gene FBXO21, Mageck_Gene level): 0.26 | Low_logP (Gene FBXO21, Mageck_Gene level): 0.57 | High_lfc (Gene FBXO22, Mageck_Gene level): 0.33 | High_logP (Gene FBXO22, Mageck_Gene level): 0.56 | Low_lfc (Gene FBXO22, Mageck_Gene level): 0.08 | Low_logP (Gene FBXO22, Mageck_Gene level): 0.24 | High_lfc (Gene FBXO24, Mageck_Gene level): 0.01 | High_logP (Gene FBXO24, Mageck_Gene level): 0.17 | Low_lfc (Gene FBXO24, Mageck_Gene level): 0.28 | Low_logP (Gene FBXO24, Mageck_Gene level): 0.95 | High_lfc (Gene FBXO25, Mageck_Gene level): -0.09 | High_logP (Gene FBXO25, Mageck_Gene level): 0.13 | Low_lfc (Gene FBXO25, Mageck_Gene level): -0.06 | Low_logP (Gene FBXO25, Mageck_Gene level): 1.23 | High_lfc (Gene FBXO27, Mageck_Gene level): 0.07 | High_logP (Gene FBXO27, Mageck_Gene level): 0.26 | Low_lfc (Gene FBXO27, Mageck_Gene level): 0.17 | Low_logP (Gene FBXO27, Mageck_Gene level): 0.61 | High_lfc (Gene FBXO28, Mageck_Gene level): 0.25 | High_logP (Gene FBXO28, Mageck_Gene level): 0.91 | Low_lfc (Gene FBXO28, Mageck_Gene level): -0.03 | Low_logP (Gene FBXO28, Mageck_Gene level): 0.09 | High_lfc (Gene FBXO30, Mageck_Gene level): -0.15 | High_logP (Gene FBXO30, Mageck_Gene level): 0.06 | Low_lfc (Gene FBXO30, Mageck_Gene level): 0.12 | Low_logP (Gene FBXO30, Mageck_Gene level): 0.2 | High_lfc (Gene FBXO31, Mageck_Gene level): 0.02 | High_logP (Gene FBXO31, Mageck_Gene level): 0.11 | Low_lfc (Gene FBXO31, Mageck_Gene level): 0.28 | Low_logP (Gene FBXO31, Mageck_Gene level): 0.85 | High_lfc (Gene FBXO32, Mageck_Gene level): 0.06 | High_logP (Gene FBXO32, Mageck_Gene level): 0.14 | Low_lfc (Gene FBXO32, Mageck_Gene level): 0.27 | Low_logP (Gene FBXO32, Mageck_Gene level): 0.47 | High_lfc (Gene FBXO33, Mageck_Gene level): -0.49 | High_logP (Gene FBXO33, Mageck_Gene level): 0 | Low_lfc (Gene FBXO33, Mageck_Gene level): 0.19 | Low_logP (Gene FBXO33, Mageck_Gene level): 0.87 | High_lfc (Gene FBXO34, Mageck_Gene level): 0.22 | High_logP (Gene FBXO34, Mageck_Gene level): 0.61 | Low_lfc (Gene FBXO34, Mageck_Gene level): 0.1 | Low_logP (Gene FBXO34, Mageck_Gene level): 0.25 | High_lfc (Gene FBXO36, Mageck_Gene level): -0.13 | High_logP (Gene FBXO36, Mageck_Gene level): 0.23 | Low_lfc (Gene FBXO36, Mageck_Gene level): -0.41 | Low_logP (Gene FBXO36, Mageck_Gene level): 0.06 | High_lfc (Gene FBXO38, Mageck_Gene level): -0.17 | High_logP (Gene FBXO38, Mageck_Gene level): 0.01 | Low_lfc (Gene FBXO38, Mageck_Gene level): 0.33 | Low_logP (Gene FBXO38, Mageck_Gene level): 0.72 | High_lfc (Gene FBXO39, Mageck_Gene level): 0 | High_logP (Gene FBXO39, Mageck_Gene level): 0.18 | Low_lfc (Gene FBXO39, Mageck_Gene level): 0.15 | Low_logP (Gene FBXO39, Mageck_Gene level): 0.56 | CRL substrate receptor scoring as top hit (gene required for BRD4 degradation) (KBM7 BRD4-BFP reporter cells, 9 0.5 µM, 10 1 µM, dBET6 10 nM, 6 hours): DCAF11 | High_lfc (gene FBXO3): 0.05 | High_logP (gene FBXO3): 0.25 | Low_lfc (gene FBXO3): -0.2 | Low_logP (gene FBXO3): 0.19 | High_lfc (gene FBXO4): 0.12 | High_logP (gene FBXO4): 0.38 | Low_lfc (gene FBXO4): -0.12 | Low_logP (gene FBXO4): 0.07 | High_lfc (gene FBXO5): -0.26 | High_logP (gene FBXO5): 0.37 | Low_lfc (gene FBXO5): -0.71 | Low_logP (gene FBXO5): 0.02 | High_lfc (gene FBXO6): -0.04 | High_logP (gene FBXO6): 0.23 | Low_lfc (gene FBXO6): -0.19 | Low_logP (gene FBXO6): 0.36 | High_lfc (gene FBXO7): 0.07 | High_logP (gene FBXO7): 0.57 | Low_lfc (gene FBXO7): 0.01 | Low_logP (gene FBXO7): 0.76 | High_lfc (gene FBXO8): 0.03 | High_logP (gene FBXO8): 0.11 | Low_lfc (gene FBXO8): -0.03 | Low_logP (gene FBXO8): 0.11 | High_lfc (gene FBXO9): -0.02 | High_logP (gene FBXO9): 0.04 | Low_lfc (gene FBXO9): -0.02 | Low_logP (gene FBXO9): 0.52 | High_lfc (gene FBXO40): -0.13 | High_logP (gene FBXO40): 0.02 | Low_lfc (gene FBXO40): -0.27 | Low_logP (gene FBXO40): 0.13 | High_lfc (gene FBXO41): 0.17 | High_logP (gene FBXO41): 0.26 | Low_lfc (gene FBXO41): -0.12 | Low_logP (gene FBXO41): 0.01 | High_lfc (gene FBXO42): 0.01 | High_logP (gene FBXO42): 0.18 | Low_lfc (gene FBXO42): 0.28 | Low_logP (gene FBXO42): 1.35 | High_lfc (gene FBXO43): 0.05 | High_logP (gene FBXO43): 0.29 | Low_lfc (gene FBXO43): 0.06 | Low_logP (gene FBXO43): 0.07 | High_lfc (gene FBXO44): 0 | High_logP (gene FBXO44): 0.11 | Low_lfc (gene FBXO44): 0.17 | Low_logP (gene FBXO44): 0.24 | High_lfc (gene FBXO45): 0.31 | High_logP (gene FBXO45): 0.64 | Low_lfc (gene FBXO45): -0.13 | Low_logP (gene FBXO45): 0.16 | High_lfc (gene FBXO46): 0.28 | High_logP (gene FBXO46): 0.48 | Low_lfc (gene FBXO46): 0.32 | Low_logP (gene FBXO46): 1.6 | High_lfc (gene FBXO47): -0.53 | High_logP (gene FBXO47): 0.06 | Low_lfc (gene FBXO47): -0.35 | Low_logP (gene FBXO47): 0.03 | High_lfc (gene FBXO48): -0.41 | High_logP (gene FBXO48): 0.11 | Low_lfc (gene FBXO48): 0 | Low_logP (gene FBXO48): 0.25 | High_lfc (gene FBXW2): -0.12 | High_logP (gene FBXW2): 0.08 | Low_lfc (gene FBXW2): -0.53 | Low_logP (gene FBXW2): 0.05 | High_lfc (gene FBXW4): -0.31 | High_logP (gene FBXW4): 0.02 | Low_lfc (gene FBXW4): 0.22 | Low_logP (gene FBXW4): 0.62 | High_lfc (gene FBXW5): -0.14 | High_logP (gene FBXW5): 0.16 | Low_lfc (gene FBXW5): 0.15 | Low_logP (gene FBXW5): 0.39 | High_lfc (gene FBXW7): 0.41 | High_logP (gene FBXW7): 1.48 | Low_lfc (gene FBXW7): -0.31 | Low_logP (gene FBXW7): 0.05 | High_lfc (gene FBXW8): -0.18 | High_logP (gene FBXW8): 0.19 | Low_lfc (gene FBXW8): 0.19 | Low_logP (gene FBXW8): 0.52 | High_logP (gene FBXW9): 0 | High_lfc (gene FBXW10): -0.05 | High_logP (gene FBXW10): 0.14 | Low_lfc (gene FBXW10): -0.09 | Low_logP (gene FBXW10): 0.05 | High_lfc (gene FBXW11): 0.12 | High_logP (gene FBXW11): 0.29 | Low_lfc (gene FBXW11): -0.29 | Low_logP (gene FBXW11): 0.06 | High_lfc (gene FBXW12): -0.19 | High_logP (gene FBXW12): 0.02 | Low_lfc (gene FBXW12): -0.05 | Low_logP (gene FBXW12): 0.24 | High_logP (gene FEM1A): 0.43
Structure (SMILES): Cc1sc2c(c1C)C(c1ccc(Cl)cc1)=N[C@@H](CC(=O)NCCOCCOCCOCCOCCNC(=O)COc1c(Br)cc(/C=C3\C(=O)Nc4ccc(Br)cc43)cc1Br)c1nnc(C)n1-2 [Compound 9]
